Source: US11084823B2, “Substituted pyrrolo[2,1-f][1,2,4]triazines as kinase inhibitors” (Daewoong Pharmaceutical Co., Ltd., priority 2017, dated 2021)

What was measured:
[1] = target: Recombinant purified human BTK (Homo sapiens (Human), UniProt Q06187); experiment: BTK kinase inhibitory activity, ADP-Glo kinase assay kit (Promega V9071); format: biochemical; conditions: ATP 10 uM, 8 ng BTK per reaction, 1 hour at 30° C., chemiluminescence
Procedure: (§1) JAK3 and BTK kinase inhibitory activities were measured for the compounds prepared in the above Examples through in vitro analysis on the ADP Glow (Glo) platform.
(§2) Specifically, the inhibitory activities of JAK3 and BTK kinase were measured using a JAK3 kinase assay kit (Promega, V9441) and a BTK kinase assay kit (Promega, V9071) which were purchased from Promega. Recombinant purified human JAK3 and BTK were diluted with 1× kinase reaction buffer (JAK3: 40 mM Tris-Cl, pH 7.5, 20 mM MgCl2, 0.1 mg/mL BSA and 50 uM DTT/BTK: 40 mM Tris-Cl, pH 7.5, 20 mM MgCl2, 0.1 mg/mL BSA, 2 mM MnCl2 and 50 uM DTT) and added to a 96 well plate (JAK3: final concentration of 4 ng per reaction/BTK: final concentration of 8 ng per reaction). […] After incubation (30° C.) for 1 hour, equivalent volume (25 uL per reaction) of ADP Glo was added and incubated (30° C.) for 40 minutes at room temperature. Then, a kinase detection reagent (50 uL per reaction) was added and incubated (30° C.) for 30 minutes at room temperature. The kinase activity was measured by chemiluminescence according to the instructions of ADP Glo kinase assay kit, and the inhibitory activity of the compounds according to the present invention was calculated.

[2] = target: Recombinant purified human JAK3 (Homo sapiens (Human), UniProt P52333); experiment: JAK3 kinase inhibitory activity, ADP-Glo kinase assay kit (Promega V9441); format: biochemical; conditions: ATP 5 uM, 4 ng JAK3 per reaction, 1 hour at 30° C., chemiluminescence
Procedure: as §1, §2

Recombinant purified human JAK3, sequence (P52333 whole entry): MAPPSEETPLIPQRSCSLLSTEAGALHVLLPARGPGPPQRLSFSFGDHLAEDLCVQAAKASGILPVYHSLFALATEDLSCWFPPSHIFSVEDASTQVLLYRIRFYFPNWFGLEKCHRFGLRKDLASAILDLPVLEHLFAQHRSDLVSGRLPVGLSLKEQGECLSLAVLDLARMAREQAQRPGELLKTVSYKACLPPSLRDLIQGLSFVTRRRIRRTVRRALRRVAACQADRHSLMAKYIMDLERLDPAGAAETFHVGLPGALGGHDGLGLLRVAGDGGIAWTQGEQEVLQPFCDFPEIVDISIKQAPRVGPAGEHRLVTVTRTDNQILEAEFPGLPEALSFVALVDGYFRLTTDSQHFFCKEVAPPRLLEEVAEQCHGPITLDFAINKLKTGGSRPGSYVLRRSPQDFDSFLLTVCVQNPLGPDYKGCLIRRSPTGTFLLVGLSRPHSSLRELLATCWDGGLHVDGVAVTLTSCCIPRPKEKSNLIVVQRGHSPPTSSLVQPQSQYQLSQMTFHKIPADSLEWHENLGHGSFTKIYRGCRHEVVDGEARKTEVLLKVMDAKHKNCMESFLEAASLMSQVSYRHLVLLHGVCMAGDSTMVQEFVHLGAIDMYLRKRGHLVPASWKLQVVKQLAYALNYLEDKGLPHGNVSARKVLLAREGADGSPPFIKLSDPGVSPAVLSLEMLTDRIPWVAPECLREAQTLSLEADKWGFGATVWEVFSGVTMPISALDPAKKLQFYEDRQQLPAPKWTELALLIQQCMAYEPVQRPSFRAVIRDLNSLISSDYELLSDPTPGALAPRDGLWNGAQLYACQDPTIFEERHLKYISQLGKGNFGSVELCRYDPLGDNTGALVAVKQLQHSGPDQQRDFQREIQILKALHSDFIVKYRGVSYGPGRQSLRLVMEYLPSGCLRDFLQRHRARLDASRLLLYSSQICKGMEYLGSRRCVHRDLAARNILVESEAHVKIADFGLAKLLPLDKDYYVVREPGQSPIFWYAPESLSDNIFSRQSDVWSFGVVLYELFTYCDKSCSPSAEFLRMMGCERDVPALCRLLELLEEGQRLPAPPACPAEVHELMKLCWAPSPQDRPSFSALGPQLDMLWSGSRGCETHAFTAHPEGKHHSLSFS
Recombinant purified human BTK, sequence (Q06187 whole entry): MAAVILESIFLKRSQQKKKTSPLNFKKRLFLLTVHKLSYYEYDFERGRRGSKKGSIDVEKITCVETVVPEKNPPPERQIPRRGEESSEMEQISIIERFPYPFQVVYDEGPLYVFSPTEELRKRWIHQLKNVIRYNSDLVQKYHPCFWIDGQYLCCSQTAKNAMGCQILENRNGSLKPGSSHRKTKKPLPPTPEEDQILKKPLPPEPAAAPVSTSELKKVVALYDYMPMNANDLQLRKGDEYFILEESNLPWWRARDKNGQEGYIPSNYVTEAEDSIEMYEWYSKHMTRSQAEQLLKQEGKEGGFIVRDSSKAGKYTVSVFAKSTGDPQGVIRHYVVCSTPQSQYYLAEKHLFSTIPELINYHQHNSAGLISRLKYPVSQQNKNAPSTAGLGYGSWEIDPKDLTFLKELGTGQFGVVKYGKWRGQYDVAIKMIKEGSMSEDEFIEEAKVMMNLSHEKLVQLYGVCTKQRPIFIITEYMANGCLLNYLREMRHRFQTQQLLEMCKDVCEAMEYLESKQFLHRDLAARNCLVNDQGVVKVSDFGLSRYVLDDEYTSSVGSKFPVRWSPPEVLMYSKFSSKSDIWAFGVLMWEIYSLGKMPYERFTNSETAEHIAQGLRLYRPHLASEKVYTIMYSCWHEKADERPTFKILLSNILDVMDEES

IC50 [1] [nM]	IC50 [2] [nM]	Structure (SMILES)
13.6	1.1	C=CC(=O)Nc1ccc(F)c(Oc2nc(Nc3cnn(C4CC4)c3)nn3cccc23)c1 [Example 1, N-(3-((2-((1-cyclopropyl-1H-pyrazol-4-yl)amino)pyrrolo[2,1-f][1,2,4]triazin-4-yl)oxy)-4-fluorophenyl)acrylamide]
22.7	2.8	C=CC(=O)Nc1cccc(Oc2nc(Nc3ccc(N4CCN(C)CC4)cc3)nn3cccc23)c1 [Example 2, N-(3-((2-((4-(4-methylpiperazin-1-yl)phenyl)amino)pyrrolo[2,1-f][1,2,4]triazin-4-yl)oxy)phenyl)acrylamide]
12.7	0.6	C=CC(=O)Nc1cccc(Oc2nc(Nc3cnn(C)c3)nn3cccc23)c1 [Example 3, N-(3-((2-((1-methyl-1H-pyrazol-4-yl)amino)pyrrolo[2,1-f][1,2,4]triazin-4-yl)oxy)phenyl)acrylamide]
13.4	0.7	C=CC(=O)Nc1cccc(Oc2nc(Nc3cnn(CC(F)F)c3)nn3cccc23)c1 [Example 4, N-(3-((2-((1-(2,2-difluoroethyl)-1H-pyrazol-4-yl)amino)pyrrolo[2,1-f][1,2,4]triazin-4-yl)oxy)phenyl)acrylamide]
8.7	0.6	C=CC(=O)Nc1cccc(Oc2nc(Nc3cc(C)ns3)nn3cccc23)c1 [Example 5, N-(3-((2-((3-methylisothiazol-5-yl)amino)pyrrolo[2,1-f][1,2,4]triazin-4-yl)oxy)phenyl)acrylamide]
10	0.5	C=CC(=O)Nc1cccc(Oc2nc(Nc3cnn(CC)c3)nn3cccc23)c1 [Example 6, N-(3-((2-((1-ethyl-1H-pyrazol-4-yl)amino)pyrrolo[2,1-f][1,2,4]triazin-4-yl)oxy)phenyl)acrylamide]
10.7	0.5	C=CC(=O)Nc1ccc(F)c(Oc2nc(Nc3cc(C)ns3)nn3cccc23)c1 [Example 7, N-(4-fluoro-3-((2-((3-methylisothiazol-5-yl)amino)pyrrolo[2,1-f][1,2,4]triazin-4-yl)oxy)phenyl)acrylamide]
7.7	0.6	C=CC(=O)Nc1ccc(F)c(Oc2nc(Nc3cnn(CC)c3)nn3cccc23)c1 [Example 8, N-(3-((2-((1-ethyl-1H-pyrazol-4-yl)amino)pyrrolo[2,1-f][1,2,4]triazin-4-yl)oxy)-4-fluorophenyl)acrylamide]
243	16.8	C=CC(=O)Nc1ccc(F)c(Oc2nc(Nc3ccn(C)c3)nn3cccc23)c1 [Example 9, N-(4-fluoro-3-((2-((1-methyl-1H-pyrrol-3-yl)amino)pyrrolo[2,1-f][1,2,4]triazin-4-yl)oxy)phenyl)acrylamide]
113	9.6	C=CC(=O)Nc1ccc(F)c(Oc2nc(Nc3cnn(CC(C)C)c3)nn3cccc23)c1 [Example 10, N-(4-fluoro-3-((2-((1-isobutyl-1H-pyrazol-4-yl)amino)pyrrolo[2,1-f][1,2,4]triazin-4-yl)oxy)phenyl)acrylamide]
107	10.3	C=CC(=O)Nc1cccc(Oc2nc(Nc3cnn(C4CC4)c3)nn3cccc23)c1 [Example 11, N-(3-((2-((1-cyclopropyl-1H-pyrazol-4-yl)amino)pyrrolo[2,1-f][1,2,4]triazin-4-yl)oxy)phenyl)acrylamide]
7.5	0.7	C=CC(=O)Nc1ccc(F)c(Oc2nc(Nc3ccc(N(C)C)cc3)nn3cccc23)c1 [Example 12, N-(3-((2-((4-(dimethylamino)phenyl)amino)pyrrolo[2,1-f][1,2,4]triazin-4-yl)oxy)-4-fluorophenyl)acrylamide]
622	41.7	C=CC(=O)Nc1ccc(F)c(Oc2nc(Nc3ccc(Oc4ccccc4)cc3)nn3cccc23)c1 [Example 13, N-(4-fluoro-3-((2-((4-phenoxyphenyl)amino)pyrrolo[2,1-f][1,2,4]triazin-4-yl)oxy)phenyl)acrylamide]
43.3	9.8	C=CC(=O)Nc1ccc(F)c(Oc2nc(Nc3ccc4ncsc4c3)nn3cccc23)c1 [Example 14, N-(3-((2-((benzo[d]thiazol-6-yl)amino)pyrrolo[2,1-f][1,2,4]triazin-4-yl)oxy)-4-fluorophenyl)acrylamide]
104	15.5	C=CC(=O)Nc1ccc(F)c(Oc2nc(Nc3cccnc3)nn3cccc23)c1 [Example 15, N-(4-fluoro-3-((2-((pyridin-3-yl)amino)pyrrolo[2,1-f][1,2,4]triazin-4-yl)oxy)phenyl)acrylamide]
123	20	C=CC(=O)Nc1cccc(Oc2nc(Nc3ccc(C(C)C)cc3)nn3cccc23)c1 [Example 16, N-(3-((2-((4-isopropylphenyl)amino)pyrrolo[2,1-f][1,2,4]triazin-4-yl)oxy)phenyl)acrylamide]
68.6	5.9	C=CC(=O)Nc1cccc(Oc2nc(Nc3ccc(OC)cc3)nn3cccc23)c1 [Example 17, N-(3-((2-((4-methoxyphenyl)amino)pyrrolo[2,1-f][1,2,4]triazin-4-yl)oxy)phenyl)acrylamide]
37.8	2.2	C=CC(=O)Nc1cccc(Oc2nc(Nc3ccc(C(=O)N4CCOCC4)cc3)nn3cccc23)c1 [Example 18, N-(3-((2-((4-(morpholine-4-carbonyl)phenyl)amino)pyrrolo[2,1-f][1,2,4]triazin-4-yl)oxy)phenyl)acrylamide]
62.9	5.3	C=CC(=O)Nc1cccc(Oc2nc(Nc3ccsc3)nn3cccc23)c1 [Example 19, N-(3-((2-((thiophen-3-yl)amino)pyrrolo[2,1-f][1,2,4]triazin-4-yl)oxy)phenyl)acrylamide]
647	57.7	C=CC(=O)Nc1cccc(Oc2nc(Nc3ccn(C)n3)nn3cccc23)c1 [Example 20, N-(3-((2-((1-methyl-1H-pyrazol-3-yl)amino)pyrrolo[2,1-f][1,2,4]triazin-4-yl)oxy)phenyl)acrylamide]
104	11.7	C=CC(=O)Nc1cccc(Oc2nc(Nc3ccc(CN(C)C)cc3)nn3cccc23)c1 [Example 21, N-(3-((2-((4-((dimethylamino)methyl)phenyl)amino)pyrrolo[2,1-f][1,2,4]triazin-4-yl)oxy)phenyl)acrylamide]
35.4	5.3	C=CC(=O)Nc1cccc(Oc2nc(Nc3ccc(N4CCOCC4)cc3)nn3cccc23)c1 [Example 22, N-(3-((2-((4-morpholinophenyl)amino)pyrrolo[2,1-f][1,2,4]triazin-4-yl)oxy)phenyl)acrylamide]
60.2	10.4	C=CC(=O)Nc1cccc(Oc2nc(Nc3ccc(N(C)C)cc3)nn3cccc23)c1 [Example 23, N-(3-((2-((4-(dimethylamino)phenyl)amino)pyrrolo[2,1-f][1,2,4]triazin-4-yl)oxy)phenyl)acrylamide]
166	18.8	C=CC(=O)Nc1cccc(Oc2nc(Nc3cc4n(n3)CCN(C)C4)nn3cccc23)c1 [Example 24, N-(3-((2-((5-methyl-4,5,6,7-tetrahydropyrazolo[1,5-a]pyrazin-2-yl)amino)pyrrolo[2,1-f][1,2,4]triazin-4-yl)oxy)phenyl)acrylamide]
7.9	1.4	C=CC(=O)Nc1ccc(F)c(Oc2nc(Nc3ccc(N4CCN(C)CC4)cc3)nn3cccc23)c1 [Example 25, N-(4-fluoro-3-((2-((4-(4-methylpiperazin-1-yl)phenyl)amino)pyrrolo[2,1-f][1,2,4]triazin-4-yl)oxy)phenyl)acrylamide]
6.2	0.9	C=CC(=O)Nc1ccc(F)c(Oc2nc(Nc3cnn(CC(F)F)c3)nn3cccc23)c1 [Example 26, N-(3-((2-((1-(2,2-difluoroethyl)-1H-pyrazol-4-yl)amino)pyrrolo[2,1-f][1,2,4]triazin-4-yl)oxy)-4-fluorophenyl)acrylamide]
5	0.7	C=CC(=O)Nc1ccc(F)c(Oc2nc(Nc3cnn(C)c3)nn3cccc23)c1 [Example 27, N-(4-fluoro-3-((2-((1-methyl-1H-pyrazol-4-yl)amino)pyrrolo[2,1-f][1,2,4]triazin-4-yl)oxy)phenyl)acrylamide]
52	9.2	C=CC(=O)Nc1ccc(F)c(Oc2nc(Nc3ccc(OC)cc3)nn3cccc23)c1 [Example 28, N-(4-fluoro-3-((2-((4-methoxyphenyl)amino)pyrrolo[2,1-f][1,2,4]triazin-4-yl)oxy)phenyl)acrylamide]
23.1	2	C=CC(=O)Nc1ccc(F)c(Oc2nc(Nc3ccc(C(=O)N4CCOCC4)cc3)nn3cccc23)c1 [Example 29, N-(4-fluoro-3-((2-((4-(morpholine-4-carbonyl)phenyl)amino)pyrrolo[2,1-f][1,2,4]triazin-4-yl)oxy)phenyl)acrylamide]
66.6	7.6	C=CC(=O)Nc1ccc(F)c(Oc2nc(Nc3ccsc3)nn3cccc23)c1 [Example 30, N-(4-fluoro-3-((2-((thiophen-3-yl)amino)pyrrolo[2,1-f][1,2,4]triazin-4-yl)oxy)phenyl)acrylamide]
